According to PMC6766931, “Design, Synthesis, and Activity Evaluation of Novel N-benzyl Deoxynojirimycin Derivatives for Use as α-Glucosidase Inhibitors” (Molecules, 2019):

System: not given
Assay: not given
Parameters: method as in earlier work
Details: quickly metabolized and excreted; cited from earlier work

SMILES | hypoglycaemic effect in vivo
OC[C@H]1NC[C@H](O)[C@@H](O)[C@@H]1O [Compound 1-DNJ, 1-deoxynojirimycin] | no significant hypoglycaemic effect

System: not given
Assay: not given
Parameters: method as in PMID 1475231
Details: rats, intravenous administration, biphasic reduction in plasma; cited from earlier work

SMILES | initial t1/2 in plasma [min] | terminal t1/2 in plasma [min]
CN1C[C@H](O)[C@@H](O)[C@H](O)[C@H]1CO [N-methyl-DNJ] | 4.5 | 32

Same assay, conditions: rats, intravenous, at 120 min after administration; cited from earlier work

SMILES | dose recovered from the urine unchanged [%]
CN1C[C@H](O)[C@@H](O)[C@H](O)[C@H]1CO [N-methyl-DNJ] | 80

Target: T1, α-glucosidase (Saccharomyces cerevisiae, UniProt P53341)
T1 construct: purchased Sigma-Aldrich
Assay: Enzyme kinetics study (Michaelis-Menten, non-linear regression)
Format: biochemical
Details: inhibitor concentration 0.25 mM, substrate PNPG 0.1-5 mM
Protocol: In the enzyme kinetics studies, the enzyme activity was measured at different times using different concentrations of the substrate p-nitrophenyl α-D-glucopyranoside (0.1, 0.2, 0.8, 1.0, 1.2, 1.6, 1.8, 2.0, 2.5, 5 mM). The kinetics of the enzymatic reaction were fit to the Michaelis‒Menten equation. The Michaelis‒Menten equation is as follows:V = Vmax[S]/(Km + [S]).
In this equation, [S] is the concentration of the substrate, Vmax is the maximum reaction velocity of the enzymatic reaction, and Km is the Michaelis constant. […] Non-linear fitting was performed with the help of Origin 8.5, which can calculate the Vmax and Km values. The Ki constant was determined as follows:Ki = [I]/(K’m/Km − 1).
In this formula, [I] is the concentration of inhibitor, K’m is the Michaelis constant of the experimental group, and Km is the Michaelis constant of the blank group.
The same protocol was followed for the experiments reported in Figure 1 except that the inhibitor concentration was 0.25 mM and the substrate concentration was varied as indicated (0.1, 0.2, 0.8, 1.0, 1.2, 1.6, 1.8, 2.0, 2.5, 5 mM). The Km and Vmax values were calculated using […], and then, the Ki value was calculated using the formula that was mentioned in Section 2.3.

T1 sequence (P53341 whole entry): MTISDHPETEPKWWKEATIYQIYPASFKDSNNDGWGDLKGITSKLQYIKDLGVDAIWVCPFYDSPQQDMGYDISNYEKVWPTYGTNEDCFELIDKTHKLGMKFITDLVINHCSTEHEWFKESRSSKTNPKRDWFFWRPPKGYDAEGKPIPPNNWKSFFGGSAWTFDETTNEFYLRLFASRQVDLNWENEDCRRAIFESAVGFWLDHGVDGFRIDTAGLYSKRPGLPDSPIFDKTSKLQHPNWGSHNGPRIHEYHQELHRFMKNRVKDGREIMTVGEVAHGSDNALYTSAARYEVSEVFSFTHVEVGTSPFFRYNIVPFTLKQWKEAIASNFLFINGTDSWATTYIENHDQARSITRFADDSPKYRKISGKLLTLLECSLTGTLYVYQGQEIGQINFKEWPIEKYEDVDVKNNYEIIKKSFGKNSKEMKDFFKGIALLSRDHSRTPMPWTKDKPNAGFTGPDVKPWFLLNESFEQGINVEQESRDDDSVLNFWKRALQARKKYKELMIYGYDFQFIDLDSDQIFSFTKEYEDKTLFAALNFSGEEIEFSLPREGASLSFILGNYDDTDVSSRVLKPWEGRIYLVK

SMILES | Vmax
C[C@H]1O[C@H](O[C@H]2[C@H](O)[C@@H](O)[C@@H](O[C@H]3[C@H](O)[C@@H](O)C(O)O[C@@H]3CO)O[C@@H]2CO)[C@H](O)[C@@H](O)[C@@H]1N[C@H]1C=C(CO)[C@@H](O)[C@H](O)[C@H]1O (stereo partly shown) [Acarbose, reference compound] | 4.40 ± 0.42 *10^−6 mmol/min
COc1cc(CN2CC(O)C(O)C(O)C2CO)ccc1O (stereo not shown) [Compound 18a, 1-(4-hydroxy-3-methoxybenzyl)-2-(hydroxymethyl) piperidine-3,4,5-triol] | 3.56 ± 0.28 *10^−6 mmol/min

Same assay, conditions: inhibitor concentration 0.25 mM; Ki = [I]/(K'm/Km − 1)

SMILES | Ki [mM]
COc1cc(CN2CC(O)C(O)C(O)C2CO)ccc1O (stereo not shown) [Compound 18a, 1-(4-hydroxy-3-methoxybenzyl)-2-(hydroxymethyl) piperidine-3,4,5-triol] | 0.11 ± 0.3

Target: T1, α-glucosidase
Assay: In vitro assay of α-glucosidase inhibitory activity (PNPG, 96-well microplates)
Format: biochemical
Details: substrate PNPG, pH 6.8, 37 °C, read-out: IC50 (mM) ± SEM

SMILES | IC50 [mM]
OCC1C(O)C(O)C(O)CN1Cc1ccc(F)cc1 (stereo not shown) [Compound 12a, 1-(4-fluorobenzyl)-2-(hydroxymethyl) piperidine-3,4,5-triol] | 9.8 ± 0.31
OCC1C(O)C(O)C(O)CN1Cc1ccc(Cl)cc1 (stereo not shown) [Compound 12b, 1-(4-chlorobenzyl)-2-(hydroxymethyl) piperidine-3,4,5-triol] | 11.22 ± 0.02
OCC1C(O)C(O)C(O)CN1Cc1ccc(Br)cc1 (stereo not shown) [Compound 12c, 1-(4-bromobenzyl)-2-(hydroxymethyl) Piperidine-3,4,5-triol] | 12.55 ± 0.03
OCC1C(O)C(O)C(O)CN1Cc1ccc(I)cc1 (stereo not shown) [Compound 12d, 2-(hydroxymethyl)-1-(4-iodobenzyl) Piperidine-3,4,5-triol] | 9.88 ± 0.05
Cc1ccc(CN2CC(O)C(O)C(O)C2CO)cc1 (stereo not shown) [Compound 12e, 2-(hydroxymethyl)-1-(4-methylbenzyl) Piperidine-3,4,5-triol] | 8.65 ± 0.08
COc1ccc(CN2CC(O)C(O)C(O)C2CO)cc1 (stereo not shown) [Compound 12f, 2-(hydroxymethyl)-1-(4-methoxybenzyl) Piperidine-3,4,5-triol] | 1.02 ± 0.23
OCC1C(O)C(O)C(O)CN1Cc1cccc(F)c1 (stereo not shown) [Compound 12g, 1-(3-fluorobenzyl)-2-(hydroxymethyl) Piperidine-3,4,5-triol] | 10.23 ± 0.02
OCC1C(O)C(O)C(O)CN1Cc1cccc(Cl)c1 (stereo not shown) [Compound 12h, 1-(3-chlorobenzyl)-2-(hydroxymethyl) Piperidine-3,4,5-triol] | 15.32 ± 0.04
OCC1C(O)C(O)C(O)CN1Cc1cccc(Br)c1 (stereo not shown) [Compound 12i, 1-(3-bromobenzyl)-2-(hydroxymethyl) Piperidine-3,4,5-triol] | 15.66 ± 0.04
OCC1C(O)C(O)C(O)CN1Cc1cccc(I)c1 (stereo not shown) [Compound 12j, 2-(hydroxymethyl)-1-(3-iodobenzyl) Piperidine-3,4,5-triol] | 10.54 ± 0.04
Cc1cccc(CN2CC(O)C(O)C(O)C2CO)c1 (stereo not shown) [Compound 12k, 2-(hydroxymethyl)-1-(3-methylbenzyl) Piperidine-3,4,5-triol] | 10.3 ± 0.21
COc1cccc(CN2CC(O)C(O)C(O)C2CO)c1 (stereo not shown) [Compound 12l, 2-(hydroxymethyl)-1-(3-methoxybenzyl) Piperidine-3,4,5-triol] | 1.25 ± 0.34
COc1cc(CN2C[C@H](O)[C@@H](O)[C@H](O)[C@H]2CO)cc(Br)c1OCc1ccccc1 [Compound 17b] | 15.68 ± 0.06
COc1cc(CN2CC(O)C(O)C(O)C2CO)cc(Br)c1OC (stereo not shown) [Compound 17c, 1-(3-bromo-4,5-dimethoxybenzyl)-2-(hydroxymethyl) Piperidine-3,4,5-triol] | 1.06 ± 0.11
COc1cc(CN2CC(O)C(O)C(O)C2CO)c(Br)c(Br)c1OC (stereo not shown) [Compound 17d, 1-(2,3-dibromo-4,5-dimethoxybenzyl)-2-(hydroxymethyl) Piperidine-3,4,5-triol] | 1.14 ± 0.09
COc1c(Br)c(Br)c(CN2C[C@H](O)[C@@H](O)[C@H](O)[C@H]2CO)c(Br)c1OC [Compound 17e, 2-(hydroxymethyl)-1-(2,3,6-tribromo-4,5-dimethoxybenzyl)-2-piperidine-3,4,5-triol] | 9.57 ± 0.08
COc1cc(CN2CC(O)C(O)C(O)C2CO)ccc1O (stereo not shown) [Compound 18a, 1-(4-hydroxy-3-methoxybenzyl)-2-(hydroxymethyl) piperidine-3,4,5-triol] | 0.207 ± 0.11
COc1cc(CN2CC(O)C(O)C(O)C2CO)cc(Br)c1O (stereo not shown) [Compound 18b, 1-(3-bromo-4-hydroxy-5-methoxybenzyl)-2-(hydroxymethyl) piperidine-3,4,5-triol] | 0.276 ± 0.13
